Assay results published in patent publication US20140039044A1, “Hydroxylated Polymethoxyflavone Compositions” (WLLGEN, INC., priority 2006, published 2014).

Key:
[1] = system: LPS-induced nitrite production in RAW 264.7 macrophages; assay: Nitrite assay (Griess reaction); type: cell-based, mouse; settings: 100 ng/ml LPS, PMF 30 μM, 24 h, FIG. 3
Experimental: Compounds or compositions were tested for anti-inflammatory effects by monitoring nitrite production in LPS-activated RAW264.7 cells. After treating the cells with LPS or LPS and test substance, supernatants were harvested and the amount of nitrite, an indicator of NO synthesis, was measured by use of the Griess reaction. Briefly, supernatants (100 μl) were mixed with the same volume of Griess reagent (1% sulphanilamide in 5% phosphoric acid and 0.1% naphthylethylenediamine dihydrochloride in water) in duplicate on 96-well plates. After incubation at room temperature for 10 min, absorbance at 570 nm was measured with a ELISA reader (Thermo Labsystems Multiskan Ascent, Finland).
The anti-inflammatory effects of compounds A-K were tested by measuring nitrite production in LPS-activated RAW 264.7 macrophages, as described in Section 8.4 above. Macrophages were treated with 100 ng/ml LPS alone or LPS and PMF (10 or 30 μM) for 24 h. At the end of incubation time, 100 μl of the culture medium was collected for the nitrite assay.

[2] = system: [Ca^2+]i in MCF-7 cells; assay: Intracellular calcium measurement (fluo-3); type: cell-based, human; settings: for Basal level of [Ca^2+]i, in words: fluo-3/AM, day 3 and 6, dose-dependent; for Intracellular Ca^2+ levels, in words: 50-100 μM, day 6
Experimental: Concentration of intracellular free Ca^2+ ([Ca^2+]i) was measured with Ca^2+ indicators fura-2 and fluo-3, as described in detail previously, for example, in Sergeev (2004) J. Steroid Biochem. Mol. Biol. 89-90:419-425. For [Ca^2+]i measurements with fluo-3, cells grown in the 96-well, black-wall plates were loaded with 2 μM of fluo-3/AM (Molecular Probes) in Dulbecco's PBS (D-PBS) supplemented with 0.1% DMSO for 40 min at 37° C. Fluorescence (485 nm excitation, 530 nm emission) was measured in the FLx800 plate reader, as described above. For [Ca^2+]i measurements with fura-2, cells grown on coverslips were loaded with 1 μM of fura-2/AM (Molecular Probes) in D-PBS supplemented with 0.1% DMSO and 0.01% Pluronic F-127 for 40 min at 37° C. The dynamics of intracellular Ca^2+ was assessed with cells in the microincubation chamber (37.0±0.2° C.) on a NIKON ECLIPSE TE-300 inverted microscope equipped for epifluorescence, ratiometric, digital imaging. The images were captured using SUPERFLUOR 40× 1.3 NA oil-immersion objective (Nikon) and COOLSNAPFX digital CCD camera (Photometrics), ratioed (340/380 nm excitation, 510 nm emission) on a pixel-by-pixel basis, and stored for analysis. Image analysis was performed using METAFLUOR 6.3 software (Molecular Devices/Universal Imaging).

[3] = system: calpain; assay: Calpain activity assay (fluorogenic substrate, immunofluorescence); type: cell-based, human; settings: MCF-7 cells; for Calpain activation, in words: day 3 or 6, FIG. 12A, 13A,B
Experimental: (§1) Calpain and caspase-12 activities were measured with the cell-permeable fluorogenic peptide substrates t-Boc-Leu-Met-CMAC (50 μM; CMAC, 7-amino-4-chloromethyl coumarin; Molecular Probes) and Ala-Thr-Ala-Asp-AFC (50 μM; AFC, 7-amino-4-trifluoromethyl coumarin; Caspase-12 Fluorometric Assay Kit, BioVision), respectively. See, e.g., Roser and Gores (2000) Meth. Mol. Biol. 144:2452-2466. Polyclonal antibodies directed against caspase-12 (BioVision) and monoclonal antibodies directed against the calpain small (cleaved) subunit (Chemicon) were used to evaluate activation of these proteases. For immunofluorescence labeling, the fixed and permeabilized cell preparations were pre-incubated with non-specific serum for 20 min, incubated for 1 h at 37° C. or overnight at 4° C. with the primary antibodies and 1 h at room temperature with secondary antibodies using ALEXA FLUOR-488 signal-amplification mouse antibodies (Molecular Probes) and FITC- or Texas Red-conjugated anti-rabbit and anti-mouse IgG (Molecular Probes). Fluorescence microscopy was carried out as described above for Ca^2+ imaging. Image analysis and measurement of fluorescence intensity was performed using MetaMorph 6.3 software (Molecular Devices/Universal Imaging), as described previously in Sergeev (1996) Endocrine 5: 335-340.

[4] = system: intracellular Ca^2+ stores in MCF-7 cells; assay: Ca2+ mobilization from endoplasmic reticulum stores with thapsigargin (fura-2); type: cell-based, human; settings: for Decrease of the Ca^2+ mobilization response: compound 4: 6.25 μM, compound 5: 12.5 μM; for Filling of the endoplasmic reticulum Ca^2+ stores, in words: 25 μM
Experimental: To evaluate Ca^2+ influx from the extracellular space, the Mn^2+ entry rate, as a reporter of Ca^2+ influx, was measured. The images were recorded at excitation of 360 nm (the fura-2 isosbestic point) and 2 mM of extracellular Mn^2+. The rates of Ca^2+ entry were estimated from the slope of the liner portion of curves of the fura-2 fluorescence quench by Mn^2+. To evaluate Ca^2+ release from the intracellular stores, cells grown on coverslips were placed in D-PBS, and the mobilizer of the endoplasmic reticulum Ca^2+-stores, thapsigargin (1 μM), was added after recording the basal [Ca^2+]i. The peak values of the [Ca^2+]i increase, indicating the filling level of the Ca^2+-stores, were measured with fura-2.
To investigate mechanism of a sustained increase in [Ca^2+]i after treatment with PMFs, the rates of the background Ca^2+ influx from the extracellular space and the magnitudes of Ca^2+ release from the endoplasmic reticulum stores with thapsigargin were measured in the treated cells using methods described above.
In FIG. 11A through 11D, the concentration for each PMF was as follows: compound 4: 6.25 μM; compound 5: 12.5 μM; compound 6: 25 μM; and compound 7: 25 μM. […] The Ca^2+ entry rates (C, D) are presented as tangents of the linear portions of the fura-2 quench curves. Data in panel C are presented as means±SE for control cells or cells treated with PMFs 3 days (black bars) or 6 days (gray bars). […] Mn^2+ or thapsigargin was added after recording the basal level of fluorescence or basal [Ca^2+]i for 30-60 s.

[5] = system: caspase-12; assay: Caspase-12 activity assay (fluorogenic substrate, immunofluorescence); type: cell-based, human; settings: MCF-7 cells, day 3 or 6, FIG. 12B, 13C,D
Experimental: as §1

Structure (SMILES) | Rank of inhibitory potency on LPS-induced nitrite production [1] | Increase in [Ca^2+]i (ECmin, apparent minimal effective concentration) [2] [µM] | Calpain activation, in words [3] | Caspase-12 activation, in words [5] | also measured
COc1ccc(-c2oc3c(OC)c(OC)c(OC)c(OC)c3c(=O)c2O)cc1OC [B, 3-hydroxy-5,6,7,8,3′,4-hexamethoxyflavone] | H>G>K>C>I>B |  |  |  | 
COc1ccc(-c2cc(=O)c3c(OC)c(OC)c(OC)cc3o2)cc1O [Compound 5, 3′-hydroxy-5,6,7,4′-tetramethoxyflavone] |  | 3.125 | activation | activation | Basal level of [Ca^2+]i, in words [2]: induced an increase in the basal level of [Ca^2+]i; Decrease of the Ca^2+ mobilization response [4]: 1.35 fold
COc1ccc(-c2cc(=O)c3c(OC)c(OC)c(OC)cc3o2)cc1OC [Compound 7, 5,6,7,3′,4′-pentamethoxyflavone, reference compound] |  | >50 | No significant calpain and caspase-12 activation | No significant calpain and caspase-12 activation | Intracellular Ca^2+ levels, in words [2]: only a trend in increasing intracellular Ca^2+ levels; Filling of the endoplasmic reticulum Ca^2+ stores, in words [4]: did not affect the filling of the endoplasmic reticulum Ca^2+ stores
COc1ccc(-c2oc3c(OC)c(OC)c(OC)c(O)c3c(=O)c2OC)cc1OC [Compound C, 5-hydroxy-3,6,7,8,3′,4′-hexamethoxyflavone] | H>G>K>C>I>B | 1.56 | activation | activation | Basal level of [Ca^2+]i, in words [2]: induced an increase in the basal level of [Ca^2+]i; Decrease of the Ca^2+ mobilization response [4]: 1.5 fold
COc1cc(-c2cc(=O)c3c(OC)c(OC)c(OC)c(OC)c3o2)ccc1O [Compound G, 4′-hydroxy-5,6,7,8,3′-pentamethoxyflavone] | H>G>K>C>I>B |  |  |  | 
COc1ccc(-c2cc(=O)c3c(O)c(OC)c(OC)c(OC)c3o2)cc1O [Compound K, 5,3′-dihydroxy-6,7,8,4′-tetramethoxyflavone] | H>G>K>C>I>B |  |  |  | 
COc1ccc(-c2oc3c(OC)c(OC)c(OC)c(OC)c3c(=O)c2OC)cc1OC [D, 3,5,6,7,8,3,4-heptamethoxyflavone, reference compound] |  | >50 | No significant calpain and caspase-12 activation | No significant calpain and caspase-12 activation | Intracellular Ca^2+ levels, in words [2]: only a trend in increasing intracellular Ca^2+ levels; Number of cells with activated calpain, in words ([3]; day 3 of treatment): a trend in increasing the number of cells with activated calpain; Filling of the endoplasmic reticulum Ca^2+ stores, in words [4]: did not affect the filling of the endoplasmic reticulum Ca^2+ stores
COc1c(OC)c(OC)c2c(=O)cc(-c3ccc(O)c(O)c3)oc2c1OC [H, 3′,4′-dihydroxy-5,6,7,8-tetramethoxyflavone] | H>G>K>C>I>B |  |  |  | 
COc1ccc(-c2cc(=O)c3c(OC)c(OC)c(OC)c(OC)c3o2)cc1O [I, 3′-hydroxy-5,6,7,8,4′-pentamethoxyflavone] | H>G>K>C>I>B |  |  |  | 
